A word on the pIC50: it is the negative decadic logarithm of the IC50, by convention in mol/L.

Experimental findings from patent US10266489B2, “Pyrrolic amide compound and preparation method and application thereof” (HitGen LTD, priority 2014, dated 2019) are described below.

Assay [1] deals with Li7 cells. The experiment in a line: Determination of cell growth inhibition, CCK-8, Li-7. It counts as cell-based. The conditions noted are these: Li-7 hepatoma cells, 72 hours, highest measured IC50 of single or multiple operations. The text has this: (§1) Test example 2 Cell determination-determination of cell growth inhibition Materials and reagents HepG2 cell strains, Hep3B cell strains, Huh7 cell strains and Li7 cell strains are purchased from Shanghai Institutes for Biological Sciences of Chinese Academy of Sciences; DMEM high glucose media and MEM media are purchased from Hyclone; fetal calf serum is purchased from Gibco Company; trypsin is purchased from Invitrogen Shanghai; CCK-8 kits are purchased from Beyotime Institute of Biotechnology; and other consumables such as cell-culture dishes and the like are purchased from Corning China. […]
(§2) comprising the steps: digesting HepG2 cells, Hep3B Huh7 cells and Li7 cells in logarithmic phases by using the trypsin; after counting the cells by taking uniform cell suspension, adjusting cell density to 1500 cells/pore by using a culture medium containing 10% of serum, and re-inoculating into a 96-pore cell culture plate, wherein the culture volume is 200 μL; incubating in a 5% CO2 incubator at a temperature of 37° C.; and culturing for 24 hours for experiments. […]
(§3) comprising the steps: taking the cells cultured for 24 hours from the incubator, sucking culture solution in the pore plate, adding 200 μL of compound solution prepared by using a culture medium containing 10% of the fetal calf serum into each pore, enabling five pores of each concentration to be parallel, setting DMSO at negative control, and incubating in the 5% CO2 incubator at a temperature of 37° C. for 72 hours for performing CCK-8 detection. […]
(§4) comprising the steps: taking a serum-free medium and a CCK-8 solution, and preparing a CCK-8 working solution according to a ratio of 10:1 (the process needs to be protected from light); taking the cells cultured for 72 hours from the incubator, sucking culture solution in the pore plate, adding 120 μL of the CCK-8 working solution into each pore, adding 120 μL of the CCK-8 working solution into a cell-free pore plate to serve as blank control, and incubating in the 5% CO2 incubator at a temperature of 37° C. for one hour (the process needs to be protected from light ); and […]
(§5) taking the pore plate from the incubator, sucking 100 μL of solution from each pore into a new 96-pore plate, and reading absorbancy at 450 nm (the process needs to he protected from light).
(§6) Tx: absorbancy measured in CCK-8 within 72 hours after compound effect
(§7) C: absorbancy measured m CCK-8 within 72 hours after culturing in negative control pores B: absorbancy measured CCK-8 in blank control pores
(§8) The compounds 1-19 prepared in the embodiments are operated in the above determination, and test results are shown in Table 3, wherein the highest measured IC50 values of the various compounds during single or multiple operations are classified as specified, as shown in Table 3: […]

For assay [2], the system named is HepG2 cells. Description: Determination of cell growth inhibition, CCK-8, HepG2. The format is cell-based. Conditions: Homo sapiens, HepG2 hepatoma cells, 72 hours, highest measured IC50 of single or multiple operations.
Description: as §1, §2, §3, §4, §5, §6, §7, §8

Assay [3] has as its system Hep3B cells. Description: Determination of cell growth inhibition, CCK-8, Hep3B. It counts as cell-based. The conditions noted are these: Homo sapiens, Hep3B hepatoma cells, 72 hours, highest measured IC50 of single or multiple operations.
Description: as §1, §2, §3, §4, §5, §6, §7, §8

Assay [4] concerns Huh7 cells. The experiment in a line: Determination of cell growth inhibition, CCK-8, Huh-7. It counts as cell-based. The conditions noted are these: Homo sapiens, Huh-7 hepatoma cells, 72 hours, highest measured IC50 of single or multiple operations.
Description: as §1, §2, §3, §4, §5, §6, §7, §8

Assay [5] addresses T1, histone deacetylase 6 (HDAC6) (Homo sapiens, UniProt Q9UBN7).
T1 construct: purchased BPS Bioscience 50076
T1 sequence (Q9UBN7 1-1215): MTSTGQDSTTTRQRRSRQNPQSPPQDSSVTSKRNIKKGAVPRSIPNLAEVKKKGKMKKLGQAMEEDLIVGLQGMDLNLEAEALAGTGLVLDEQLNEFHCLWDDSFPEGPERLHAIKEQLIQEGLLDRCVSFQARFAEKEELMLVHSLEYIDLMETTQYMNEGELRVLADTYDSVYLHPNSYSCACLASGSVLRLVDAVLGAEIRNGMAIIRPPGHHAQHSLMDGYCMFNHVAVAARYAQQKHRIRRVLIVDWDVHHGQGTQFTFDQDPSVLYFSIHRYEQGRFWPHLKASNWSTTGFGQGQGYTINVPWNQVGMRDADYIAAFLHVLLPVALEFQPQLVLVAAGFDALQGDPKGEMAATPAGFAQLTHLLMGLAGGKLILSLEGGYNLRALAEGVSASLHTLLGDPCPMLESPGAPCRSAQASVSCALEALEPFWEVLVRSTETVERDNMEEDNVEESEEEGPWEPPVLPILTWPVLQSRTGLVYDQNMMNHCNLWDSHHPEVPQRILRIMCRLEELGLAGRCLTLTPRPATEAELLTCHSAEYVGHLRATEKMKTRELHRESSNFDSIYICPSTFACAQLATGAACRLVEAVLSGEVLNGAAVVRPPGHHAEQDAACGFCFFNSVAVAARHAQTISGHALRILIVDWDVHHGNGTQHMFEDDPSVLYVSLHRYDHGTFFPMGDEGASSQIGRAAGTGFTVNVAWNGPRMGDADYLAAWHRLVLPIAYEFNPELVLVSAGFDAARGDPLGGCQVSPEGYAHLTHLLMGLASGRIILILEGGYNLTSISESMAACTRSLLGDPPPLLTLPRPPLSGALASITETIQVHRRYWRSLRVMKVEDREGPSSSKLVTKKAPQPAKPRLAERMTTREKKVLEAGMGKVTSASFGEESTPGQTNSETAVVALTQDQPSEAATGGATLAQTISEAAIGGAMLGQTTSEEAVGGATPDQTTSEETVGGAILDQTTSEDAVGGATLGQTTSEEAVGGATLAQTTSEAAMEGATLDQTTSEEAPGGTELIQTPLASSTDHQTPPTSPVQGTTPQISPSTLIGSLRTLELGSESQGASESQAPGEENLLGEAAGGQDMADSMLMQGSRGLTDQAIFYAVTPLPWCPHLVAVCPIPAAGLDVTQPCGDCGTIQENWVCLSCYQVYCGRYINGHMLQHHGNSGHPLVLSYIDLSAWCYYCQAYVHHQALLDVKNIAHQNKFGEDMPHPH
Description: Detection of enzyme viability of histone deacetylase 6 (fluorogenic substrate deacetylation). It counts as biochemical. The conditions noted are these: 0.35 ng/μL HDAC 6, 20 μM substrate, 37° C. The text has this:
(§9) HDAC inhibitory viabilities of the compounds in the present invention are detected in detection of substrate deacetylation.
A: Detection of enzyme viability of histone deacetylase 6 (#50076, BPS Bioscience):
Acetyl of HDAC 6 on a substrate is removed, so that the substrate is activated and can be affected by a subsequently added developing solution, and fluorophore is released. The size of a fluorescence signal reflects the viability of the HDAC 6. An IC50 detection method of the enzyme is disclosed in Chuping Xu, Elisabetta Soragni improved Histone Deacetylase Inhibitors as Therapeutics for the Neurdegenerative DiseaseEriedreich's Ataxia: A New Synthetic Route. A total reaction system (100 μL/well) contains 0.35 ng/μL of HDAC 6, 20 μM of substrate and compounds of different concentrations. The fluorescence signal is measured within 30 minutes after incubation at a temperature of 37° C., inhibitory effects of the compounds are determined from the obtained data and mapped with the compound concentrations to obtain a concentration response curve, and the IC50 value is fitted according to a four-parameter model.
The compounds 1-19 prepared in the embodiments are subjected to detection of enzyme viability of histone deacetylase 6 (i.e., HDAC6) according to the method above. Test results are shown in Table 2, wherein the measured IC50 values of the compounds are classified as specified, as shown in Table 2: […]

The target of assay [6] is T2, histone deacetylase 3 (HDAC3) (Homo sapiens, UniProt O15379).
T2 construct: purchased BPS Bioscience 50003
T2 sequence (O15379 whole entry): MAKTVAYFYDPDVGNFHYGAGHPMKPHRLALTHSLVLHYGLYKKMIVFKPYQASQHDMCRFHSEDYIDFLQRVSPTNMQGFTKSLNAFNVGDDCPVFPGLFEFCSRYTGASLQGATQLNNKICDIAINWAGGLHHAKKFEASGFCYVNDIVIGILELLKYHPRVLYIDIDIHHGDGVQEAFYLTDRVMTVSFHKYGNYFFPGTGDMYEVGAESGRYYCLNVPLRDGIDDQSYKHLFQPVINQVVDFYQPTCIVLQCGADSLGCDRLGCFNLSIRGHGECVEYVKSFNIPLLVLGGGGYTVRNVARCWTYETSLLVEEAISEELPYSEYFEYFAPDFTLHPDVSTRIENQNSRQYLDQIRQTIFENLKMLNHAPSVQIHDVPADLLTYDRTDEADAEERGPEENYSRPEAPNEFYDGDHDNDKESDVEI
T2 sequence (Q9Y618 395-489 partner limits assumed): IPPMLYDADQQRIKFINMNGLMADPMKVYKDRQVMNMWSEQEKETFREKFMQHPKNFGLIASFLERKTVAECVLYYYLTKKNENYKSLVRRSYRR
Description: Detection of enzyme viability of histone deacetylase 3 (fluorogenic substrate deacetylation). Conditions: 0.16 ng/μL HDAC 3, 10 μM substrate. It counts as biochemical.
Description: as §9
B: Detection of enzyme viability of histone deacetylase 3 (#50003, BPS Bioscience):
Acetyl of HDAC 3 on a substrate is removed, so that the substrate is activated and can be affected by the developing solution, and fluorophore is released. The size of a fluorescence signal reflects the viability of the HDAC 3. An IC50 detection method of the enzyme is disclosed in Chuping Xu, Elisabetta Soraeni Improved Histone Deacetylase Inhibitors as Therapeutics for the Neurdegenerative DiseaseFriedreich's Ataxia: A New Synthetic Route. A total reaction system (100 μL/well) contains 0.16 ng/μL of HDAC 3, 10 μM of substrate and compounds of different concentrations. The fluorescence signal is detected at Ex/Em=360/460 on line, inhibitory effects of the compounds are determined from the obtained data and mapped with the compound concentrations to obtain a concentration response curve, and the IC50 value is fitted according to a four-parameter model.
The compounds 1-19 prepared in the embodiments are subjected to detection of enzyme viability of histone deacetylase 3 (i.e., HDAC3) according to the method above. Test results are shown in Table 2, wherein the measured IC50 values of the compounds are classified as specified, as shown in Table 2: […]

pIC50: −log10 of the molar value.

With `O=C(NO)C1=CCN(S(=O)(=O)c2ccccc2)C1` [Compound 2, N-hydroxy-1-(benzene-sulfonyl)-2,5-dihydro-1H-pyrrole-3-formamide], the pIC50 was under 5.00 in assay [1]; under 5.00 in assay [2]; under 5.00 in assay [3]; under 5.00 in assay [4]; over 7.00 in assay [5]; under 6.00 in assay [6].

Consider `O=C(NO)C1=CCN(S(=O)(=O)c2ccc(Oc3ccccc3)cc2)C1` [Compound 3], for which the pIC50 is under 5.00 in assay [1]; under 5.00 in assay [2]; under 5.00 in assay [3]; under 5.00 in assay [4]; 6.52 to 7.00 in assay [5]; 6.00 to 7.00 in assay [6].

On to `CC(=O)Nc1ccc(S(=O)(=O)N2CC=C(C(=O)NO)C2)cc1Cl` [Compound 4, N-hydroxy-1-((4-acetamido-3-chlorphenyl)sulfonyl)2,5-dihydro-1H-pyrro1e-3-formamide], for which the pIC50 in assay [1] is under 5.00; in assay [2] it was under 5.00; in assay [3], under 5.00; in assay [4] it was under 5.00; in assay [5], over 7.00; in assay [6], 6.00 to 7.00.

For `O=C(NO)C1=CCN(S(=O)(=O)c2ccc3c(c2)OCCO3)C1` [Compound 5, N-hydroxy-1-((2,3-dihydro-benzo[b] [1,4]dioxin)-6-sulfonyl)2,5-dihydro-1H-pyrrole-3-formamide], the pIC50 was under 5.00 in assay [1]; under 5.00 in assay [2]; under 5.00 in assay [3]; under 5.00 in assay [4]; over 7.00 in assay [5]; under 6.00 in assay [6].

With `O=C(NO)C1=CCN(S(=O)(=O)c2ccc3c(c2)OCC3)C1` [Compound 6, N-hydroxy-1-((2,3-dihydro-benzofuran)-6-sulfonyl)2,5-dihydro-1H-pyrrole-3-formamide], the pIC50 in assay [1] was under 5.00; in assay [2], under 5.00; in assay [3], under 5.00; in assay [4], under 5.00; in assay [5] it was over 7.00; in assay [6] it was 6.00 to 7.00.

Turning to `CC(C)(C)c1ccc(S(=O)(=O)N2CC=C(C(=O)NO)C2)cc1` [Compound 8], the pIC50 was under 5.00 in assay [1]; under 5.00 in assay [2]; under 5.00 in assay [3]; under 5.00 in assay [4]; over 7.00 in assay [5]; 6.00 to 7.00 in assay [6].
